How the values were obtained:
PKC-α [1] = target: T1, PKC-α (Homo sapiens, UniProt P17252); assay: In vitro competition with anti-PKC-α antibody, Protocol B (peptide added to cell extract before electrophoresis), IMR-32 cells; format: binding; design: subcellular localisation of endogenous PKC-α in IMR-32 cells; endogenous in cells; host or cells: IMR-32; conditions: for Inhibition (%) / Relative Intensity (%): Table 9
Description: (§1) Peptides PRE 3 and PRE 4 (see Table 3) were tested for their ability to interfere with the binding of isoform-specific polyclonal antibodies (Santa Cruz Biotechnology, Inc.) to PKC-α, PKC-βI or PKC-βII using the general protocol described in Example 3.

PKC-βI = PKC-βI (Homo sapiens, UniProt P05771); assay: In vitro competition with anti-PKC-βI antibody, Protocol B, IMR-32 cells; format: binding; design: PRE 3 and PRE 4 in IMR-32 Neuroblastoma Cells: Protocol B; endogenous in cells; host or cells: IMR-32; conditions: PKC-βI; for Band Intensity: control band intensity 170.5, Table 9
Sequence of PKC-βI (P05771 whole entry): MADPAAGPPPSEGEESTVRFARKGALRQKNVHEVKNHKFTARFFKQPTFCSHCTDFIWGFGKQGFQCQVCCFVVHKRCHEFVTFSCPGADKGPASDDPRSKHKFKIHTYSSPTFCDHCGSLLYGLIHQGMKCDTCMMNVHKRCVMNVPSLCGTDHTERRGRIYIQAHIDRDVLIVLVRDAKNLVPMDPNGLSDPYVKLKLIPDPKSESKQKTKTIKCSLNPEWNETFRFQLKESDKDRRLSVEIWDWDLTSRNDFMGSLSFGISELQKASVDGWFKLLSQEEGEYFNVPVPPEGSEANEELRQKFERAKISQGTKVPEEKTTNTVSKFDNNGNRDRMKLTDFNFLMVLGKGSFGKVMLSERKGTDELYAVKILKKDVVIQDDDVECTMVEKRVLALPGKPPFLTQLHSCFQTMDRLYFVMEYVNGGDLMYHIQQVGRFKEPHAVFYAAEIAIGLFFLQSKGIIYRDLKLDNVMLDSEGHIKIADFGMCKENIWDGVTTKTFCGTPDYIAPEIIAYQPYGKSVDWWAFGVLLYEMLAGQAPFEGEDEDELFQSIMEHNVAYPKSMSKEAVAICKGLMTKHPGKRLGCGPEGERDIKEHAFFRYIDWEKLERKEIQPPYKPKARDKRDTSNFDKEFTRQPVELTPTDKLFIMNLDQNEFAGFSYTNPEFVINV
Description: (§2) The ability of the peptides PRE 2 and PRE 3 (see Table 3) to interfere with the binding of a PKC-α-specific polyclonal antibody (Santa Cruz Biotechnology, Inc.) to PKC-α was determined using a modified version of the protocol outlined above in which the test peptide was added directly to the cell extract prior to electrophoresis at a concentration of either 5× or 15× the concentration of the protein applied to each well of the gel for the Western blots (20 μg).
as §1

PKC-ε = assay: In vitro competition with anti-PKC-ε antibody, Protocol B, IMR-32 cells; format: binding, human
Description: as §2
Peptides PRE 2, PRE 3 and PRE 4 (see Table 3) were tested for their ability to interfere with the binding of isoform-specific polyclonal antibodies (Santa Cruz Biotechnology, Inc.) to PKC-ε using the general protocol described in Example 3. Two bands, representing alternate splicing variants of PKC-ε, were identified on the Western blot using this anti-PKC-ε antibody.

PKC-βII = PKC-βII (Homo sapiens, UniProt P05771); assay: In vitro competition with anti-PKC-βII antibody, Protocol B, IMR-32 cells; format: binding; design: PRE 3 and PRE 4 in IMR-32 Neuroblastoma Cells: Protocol B; endogenous in cells; host or cells: IMR-32; conditions: PKC-βII; for Band Intensity: control band intensity 98.6, Table 9
Sequence of PKC-βII (P05771 1-673 isoform P05771-2): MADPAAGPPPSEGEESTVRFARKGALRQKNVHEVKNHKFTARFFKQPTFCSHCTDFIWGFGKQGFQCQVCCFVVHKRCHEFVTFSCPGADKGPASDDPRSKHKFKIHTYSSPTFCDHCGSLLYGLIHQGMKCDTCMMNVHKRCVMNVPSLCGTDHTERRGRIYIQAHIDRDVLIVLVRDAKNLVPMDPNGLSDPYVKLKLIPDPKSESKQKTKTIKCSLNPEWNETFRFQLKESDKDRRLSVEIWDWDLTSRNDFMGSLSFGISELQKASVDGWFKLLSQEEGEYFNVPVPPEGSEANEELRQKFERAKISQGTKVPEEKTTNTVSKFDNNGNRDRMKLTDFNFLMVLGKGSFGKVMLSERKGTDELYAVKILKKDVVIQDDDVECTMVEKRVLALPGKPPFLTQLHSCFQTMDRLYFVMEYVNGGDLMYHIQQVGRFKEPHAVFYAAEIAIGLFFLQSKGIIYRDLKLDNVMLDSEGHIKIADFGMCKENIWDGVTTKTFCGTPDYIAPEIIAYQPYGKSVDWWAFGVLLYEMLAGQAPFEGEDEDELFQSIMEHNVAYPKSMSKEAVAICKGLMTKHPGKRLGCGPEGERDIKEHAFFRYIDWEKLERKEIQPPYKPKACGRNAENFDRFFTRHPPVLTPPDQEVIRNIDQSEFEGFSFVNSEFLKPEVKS
Description: as §1

PKC-α [2] = target: T1, PKC-α; assay: Subcellular localisation of PKC-α in IMR-32 cells; format: cell-based; design: subcellular localisation of endogenous PKC-α in IMR-32 cells; endogenous in cells; host or cells: IMR-32; conditions: 10 mg/ml, pinocytic endocytosis
Description: Peptides PRE 3 or PRE 4 (10 mg/ml) were introduced into human neuroblastoma cells (IMR-32) by pinocytic endocytosis. The cells were fixed and stained with rabbit PKC-A primary antibody and anti-rabbit Alexa-488 or Alexa-800 secondary antibody.
In most of the cells PKC-α can be seen to be located in the cytoplasm, around the nucleus and at the plasma membrane (where it becomes activated).

PKC-β = assay: In vitro competition with anti-PKC-β antibody, Protocol A, IMR-32 cells; format: binding, human; conditions: for Band Intensity / Inhibition (%) / Relative Intensity (%): PKC-β, IMR-32, Table 6
Description: Cell lysates from either IMR-32 (human neuroblastoma) cells or C6Cx43 cells (rat glioma transfected cells overexpressing connexin 43) were obtained using standard protocols and the proteins of the lysate were separated by SDS PAGE electrophoresis and electrotransferred onto a nitrocellulose membrane. The membrane was incubated for 30 minutes in blocking buffer (TBST) containing the test peptide at either 5× or 20× the concentrations of the primary antibody. A primary polyclonal antibody specific for PKC-α (Santa Cruz Biotechnology, Inc., CA) was then added (15 μg/ml) and the membrane incubated for a further 45 minutes. Finally, the primary antibody was detected with a secondary antibody conjugated to alkaline phosphatase using standard procedures. The intensity of the band corresponding to PKC-α was assessed by scanning and densitometry using the Gel-Pro software (Media Cybernetics) to obtain relative band intensities (average of 3 replicas). Control assays were conducted as described above except that blocking buffer without peptide was used.
Peptides PRE 1, PRE 2 and PRE 3 (see Table 3) were tested for their ability to interfere with the binding of a PKC-β-specific polyclonal antibody (Santa Cruz Biotechnology, Inc.) to PKC-β using the general protocol described in Example 1. […] It is worth noting in this regard that PKC-α and PKC-β belong to the same sub-group of PKCs (cPKCs).

[3] = 100 μg, Table 9, read-out: Relative Intensity (%)
[4] = 200 μg, Table 9, read-out: Relative Intensity (%)
[5] = 300 μg, Table 9, read-out: Relative Intensity (%)

## Ac-AKGIQEVKGGDAQNLIGISI-NH2 [PRE 3]
PKC-α [1]
  effect on antibody binding to PKC-α: effectively interfered with PKC-α antibody binding to PKC-α
PKC-α [1]; 100 μg, PKC-α, IMR-32, Table 7
  Band Intensity: 0.0
  inhibition at 0.1 mg: 100%
PKC-α [1]; 100 μg, PKC-α, IMR-32, Table 7, read-out: Relative Intensity (%)
  remaining activity at 0.1 mg: 0%
PKC-α [1]; 100 μg, PKC-α
  Inhibition (%): 100.0%
  Relative Intensity (%): 0.0%
PKC-α [1]; 100 μg, PKC-α, control band intensity 302.5, Table 9
  Band Intensity: 0.0
PKC-α [1]; 200 μg, PKC-α, IMR-32, Table 7
  Band Intensity: 0.0
  inhibition at 0.2 mg: 100%
PKC-α [1]; 200 μg, PKC-α, IMR-32, Table 7, read-out: Relative Intensity (%)
  remaining activity at 0.2 mg: 0%
PKC-α [1]; 200 μg, PKC-α
  Inhibition (%): 100.0%
  Relative Intensity (%): 0.0%
PKC-α [1]; 200 μg, PKC-α, control band intensity 302.5, Table 9
  Band Intensity: 0.0
PKC-α [1]; 300 μg, PKC-α, IMR-32, Table 7
  Band Intensity: 0.0
  inhibition at 0.3 mg: 100%
PKC-α [1]; 300 μg, PKC-α, IMR-32, Table 7, read-out: Relative Intensity (%)
  remaining activity at 0.3 mg: 0%
PKC-α [1]; 300 μg, PKC-α
  Inhibition (%): 100.0%
  Relative Intensity (%): 0.0%
PKC-α [1]; 300 μg, PKC-α, control band intensity 302.5, Table 9
  Band Intensity: 0.0
PKC-βI; 100 μg, Table 9
  inhibition at 0.1 mg: 100%
PKC-βI; [3]
  remaining activity at 0.1 mg: 0%
PKC-βI; 100 μg
  Band Intensity: 0.0
PKC-βI; 200 μg, Table 9
  inhibition at 0.2 mg: 100%
PKC-βI; [4]
  remaining activity at 0.2 mg: 0%
PKC-βI; 200 μg
  Band Intensity: 0.0
PKC-βI; 300 μg, Table 9
  inhibition at 0.3 mg: 100%
PKC-βI; [5]
  remaining activity at 0.3 mg: 0%
PKC-βI; 300 μg
  Band Intensity: 0.0
PKC-ε; 20 μg, PKC-ε Band 1, Table 10
  Band Intensity: 5.12
  Inhibition (%): 99.0%
  Relative Intensity (%): 0.12%
PKC-ε; 20 μg, PKC-ε Band 2, Table 10
  Band Intensity: 0.0
  Inhibition (%): 100.0%
  Relative Intensity (%): 0.0%
PKC-ε; 50 μg, PKC-ε Band 1, Table 10
  Band Intensity: 0.0
  Inhibition (%): 100.0%
  Relative Intensity (%): 0.0%
PKC-ε; 50 μg, PKC-ε Band 2, Table 10
  Band Intensity: 0.0
  Inhibition (%): 100.0%
  Relative Intensity (%): 0.0%
PKC-ε; 100 μg, PKC-ε Band 1, Table 10
  Band Intensity: 0.0
  Inhibition (%): 100.0%
  Relative Intensity (%): 0.0%
PKC-ε; 100 μg, PKC-ε Band 2, Table 10
  Band Intensity: 0.0
  Inhibition (%): 100.0%
  Relative Intensity (%): 0.0%
PKC-βII; 100 μg, Table 9
  inhibition at 0.1 mg: 100%
PKC-βII; [3]
  remaining activity at 0.1 mg: 0%
PKC-βII; 100 μg
  Band Intensity: 0.0
PKC-βII; 200 μg, Table 9
  inhibition at 0.2 mg: 100%
PKC-βII; [4]
  remaining activity at 0.2 mg: 0%
PKC-βII; 200 μg
  Band Intensity: 0.0
PKC-βII; 300 μg, Table 9
  inhibition at 0.3 mg: 100%
PKC-βII; [5]
  remaining activity at 0.3 mg: 0%
PKC-βII; 300 μg
  Band Intensity: 0.0
PKC-α [2]
  effect on subcellular localisation of PKC-α: does not alter the subcellular localisation of PKC-α
PKC-β
  effect on antibody binding to PKC-β: did not show an effect on antibody binding to PKC-β
PKC-β; 75 μg
  Band Intensity: 1.900
  Inhibition (%): 0.0%
  Relative Intensity (%): 102.4%
PKC-β; 300 μg
  Band Intensity: 1.900
  Inhibition (%): 0.0%
  Relative Intensity (%): 102.4%
PKC-β; 600 μg
  Band Intensity: 1.847
  Inhibition (%): 0.0%
  Relative Intensity (%): 99.6%

Source: US20100041597A1, “PEPTIDES TARGETED TO PROTEIN KINASE C ISOFORMS AND USES THEREOF” (priority 2005, published 2010)
